From patent publication US20070167452A1, “Therapeutic amide derivatives” (PFIZER, INC., priority 2004, published 2007)

Columns and labels:
[1] = biological target: Human HERG (Homo sapiens, UniProt Q12809); experiment: Human Dofetilide Binding Assay
Method: Human HERG transfected HEK293S cells were prepared and grown in-house. The collected cells were suspended in 50 mM Tris-HCl (pH 7.4 at 4° C.) and homogenized using a hand held Polytron PT 1200 disruptor set at full power for 20 sec on ice. The homogenates were centrifuged at 48,000×g at 4° C. for 20 min. The pellets were then resuspended, homogenized, and centrifuged once more in the same manner. The final pellets were resuspended in an appropriate volume of 50 mM Tris-HCl, 10 mM KCl, 1 mM MgCl2 (pH 7.4 at 4° C.), homogenized, aliquoted and stored at −80° C. until use. An aliquot of membrane fractions was used for protein concentration determination using BCA protein assay kit (PIERCE) and ARVOsx plate reader (Wallac).
Binding assays were conducted in a total volume of 200 μl in 96-well plates. Twenty μl of test compounds were incubated with 20 μl of [^3H]-dofetilide (Amersham, final 5 nM) and 160 μl of membrane homogenate (25 μg protein) for 60 minutes at room temperature. Nonspecific binding was determined by 10 μM dofetilide at the final concentration. Incubation was terminated by rapid vacuum filtration over 0.5% presoaked GF/B Betaplate filter using Skatron cell harvester with 50 mM Tris-HCl, 10 mM KCl, 1 mM MgCl2, pH 7.4 at 4° C. The filters were dried, put into sample bags and filled with Betaplate Scint. Radioactivity bound to filter was counted with Wallac Betaplate counter.

[2] = biological target: T1, NR2B receptor (Rattus norvegicus, UniProt P35439+Q00960); experiment: NR2B Binding Assay; details: forebrain P2 membranes of male CD rats; 5 nM [3H] NR2B ligand
T1 construct: Membranes were prepared by homogenization of forebrain of male CD rats; from tissue; host or cells: forebrain of male CD rats (P2 membrane)
Method: The activity of the cycloalkylene amide compounds of the present invention, as NR2B antagonists, is determined by their ability to inhibit the binding of NR2B subunit at its receptor sites employing radioactive ligands.
The NR^2B antagonist activity of the cycloalkylene amide compounds is evaluated by using the standard assay procedure described in, for example, J. Pharmacol., 331, pp 117-126, 1997. This method essentially involves determining the concentration of the individual compound required to reduce the amount of radiolabelled NR2B ligands by 50% at their receptor sites, thereby affording characteristic IC50 values for each compound tested. More specifically, the assay is carried out as follows.
Membranes were prepared by homogenization of forebrain of male CD rats weighing between 170˜190 g by using glass-Teflon homogenizer in 0.32 M sucrose at 4° C. The crude nuclear pellet was removed by centrifugation at 1000×g for 10 min, and the supernatant centrifuged at 17000×g for 25 min. The resulting pellet was resuspended in 5 mM Tris acetate pH 7.4 at 4° C. for 10 min to lyse cellular particles and again centrifuged at 17000×g. The resulting pellet (P2 membrane) was washed twice in Tris acetate, resuspended at 5.5 mg protein/ml and stored at −20° C. until use. All the manipulation was done on ice, and stock solution and equipment were kept on ice at all time.
For the saturation assay, receptor saturation was determined by incubating [^3H]-1-[(1S*,2S*)-2-hydroxy-2-(4-hydroxyphenyl)-1-methylethyl]-4-phenylpiperidin-4-ol and 50 μg protein of P2 membrane for 60 minutes at room temperature in a final 100 μl of incubation buffer (50 mM Tris HCl, pH7.4). Total and non-specific bindings (in the presence of 10 μM of unlabeled 1-[(1S*,2S*)-2-hydroxy-2-(4-hydroxyphenyl)-1-methylethyl]-4-phenylpiperidin-4-ol) were determined in a range of [^3H]-1-[(1S*,2S*)-2-hydroxy-2-(4-hydroxyphenyl)-1-methylethyl]-4-phenylpiperidin-4-ol concentrations (0.625 nM to 60 nM).
For the competition assay, test compounds were incubated in duplicate with 5 nM [^3H]-1-[(1S*,2S*)-2-hydroxy-2-(4-hydroxyphenyl)-1-methylethyl]-4-phenylpiperidin-4-ol and 50 μg protein of P2 membrane for 60 minutes at room temperature in a final 100 μl of 50 mM Tris HCl buffer (pH7.4). Nonspecific binding was determined by 10 μM of unlabeled 1-[(1S*,2S*)-2-hydroxy-2-(4-hydroxyphenyl)-1-methylethyl]-4-phenylpiperidin-4-ol (25 μl). The saturation derived KD gained in saturation assay was used for all Ki calculations.
All incubations were terminated by rapid vacuum filtration over 0.2% polyethyleneimine soaked Whatman GF/B glass fibre filter paper using a SKATRON cell harvester followed by three washes with ice-cold filtration buffer (5 mM Tris HCl, pH 7.4.). Receptor-bound radioactivity was quantified by liquid scintillation counting using Packard LS counter. Competition assays were performed by counting Wallac GF/B filters on Betaplate scintillation counter (Wallac).

T1 sequence (Q00960 27-1482, other chains not shown): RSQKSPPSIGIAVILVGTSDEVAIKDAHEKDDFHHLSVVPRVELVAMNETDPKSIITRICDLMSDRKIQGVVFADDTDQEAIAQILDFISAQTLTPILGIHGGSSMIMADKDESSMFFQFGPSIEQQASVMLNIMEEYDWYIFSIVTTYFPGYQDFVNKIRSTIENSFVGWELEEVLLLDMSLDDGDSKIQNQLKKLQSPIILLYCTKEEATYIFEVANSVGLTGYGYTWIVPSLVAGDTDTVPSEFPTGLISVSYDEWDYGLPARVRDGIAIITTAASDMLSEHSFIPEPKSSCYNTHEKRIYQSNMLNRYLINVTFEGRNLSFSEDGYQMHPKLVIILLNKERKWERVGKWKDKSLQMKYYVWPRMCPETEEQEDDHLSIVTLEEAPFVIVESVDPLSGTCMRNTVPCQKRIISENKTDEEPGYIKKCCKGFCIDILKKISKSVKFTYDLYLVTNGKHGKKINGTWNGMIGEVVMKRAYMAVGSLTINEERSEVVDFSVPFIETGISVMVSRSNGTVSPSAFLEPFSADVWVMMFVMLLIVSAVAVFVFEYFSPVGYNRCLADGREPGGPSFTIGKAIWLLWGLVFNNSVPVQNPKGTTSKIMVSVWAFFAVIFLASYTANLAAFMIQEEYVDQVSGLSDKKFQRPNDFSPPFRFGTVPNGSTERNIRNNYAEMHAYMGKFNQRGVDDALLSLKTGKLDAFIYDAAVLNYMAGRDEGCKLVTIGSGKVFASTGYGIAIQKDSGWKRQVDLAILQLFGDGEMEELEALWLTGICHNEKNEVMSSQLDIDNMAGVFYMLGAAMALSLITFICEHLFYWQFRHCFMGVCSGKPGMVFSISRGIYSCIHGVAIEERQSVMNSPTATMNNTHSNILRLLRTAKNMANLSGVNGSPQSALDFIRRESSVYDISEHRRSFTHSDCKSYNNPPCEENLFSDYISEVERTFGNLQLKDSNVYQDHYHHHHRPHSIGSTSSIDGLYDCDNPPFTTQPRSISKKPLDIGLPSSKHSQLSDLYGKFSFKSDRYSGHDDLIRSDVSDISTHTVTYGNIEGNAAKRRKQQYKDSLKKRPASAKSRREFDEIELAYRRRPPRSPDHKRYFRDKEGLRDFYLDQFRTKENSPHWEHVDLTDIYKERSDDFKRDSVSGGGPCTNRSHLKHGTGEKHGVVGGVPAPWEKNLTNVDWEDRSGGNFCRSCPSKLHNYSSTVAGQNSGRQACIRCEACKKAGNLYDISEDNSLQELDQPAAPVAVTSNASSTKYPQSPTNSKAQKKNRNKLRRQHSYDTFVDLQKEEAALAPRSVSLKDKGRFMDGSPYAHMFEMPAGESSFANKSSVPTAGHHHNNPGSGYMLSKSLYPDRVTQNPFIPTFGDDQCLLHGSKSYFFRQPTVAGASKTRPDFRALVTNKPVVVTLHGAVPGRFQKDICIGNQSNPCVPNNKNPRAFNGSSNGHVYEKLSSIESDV
Sequence of Human HERG (Q12809 whole entry): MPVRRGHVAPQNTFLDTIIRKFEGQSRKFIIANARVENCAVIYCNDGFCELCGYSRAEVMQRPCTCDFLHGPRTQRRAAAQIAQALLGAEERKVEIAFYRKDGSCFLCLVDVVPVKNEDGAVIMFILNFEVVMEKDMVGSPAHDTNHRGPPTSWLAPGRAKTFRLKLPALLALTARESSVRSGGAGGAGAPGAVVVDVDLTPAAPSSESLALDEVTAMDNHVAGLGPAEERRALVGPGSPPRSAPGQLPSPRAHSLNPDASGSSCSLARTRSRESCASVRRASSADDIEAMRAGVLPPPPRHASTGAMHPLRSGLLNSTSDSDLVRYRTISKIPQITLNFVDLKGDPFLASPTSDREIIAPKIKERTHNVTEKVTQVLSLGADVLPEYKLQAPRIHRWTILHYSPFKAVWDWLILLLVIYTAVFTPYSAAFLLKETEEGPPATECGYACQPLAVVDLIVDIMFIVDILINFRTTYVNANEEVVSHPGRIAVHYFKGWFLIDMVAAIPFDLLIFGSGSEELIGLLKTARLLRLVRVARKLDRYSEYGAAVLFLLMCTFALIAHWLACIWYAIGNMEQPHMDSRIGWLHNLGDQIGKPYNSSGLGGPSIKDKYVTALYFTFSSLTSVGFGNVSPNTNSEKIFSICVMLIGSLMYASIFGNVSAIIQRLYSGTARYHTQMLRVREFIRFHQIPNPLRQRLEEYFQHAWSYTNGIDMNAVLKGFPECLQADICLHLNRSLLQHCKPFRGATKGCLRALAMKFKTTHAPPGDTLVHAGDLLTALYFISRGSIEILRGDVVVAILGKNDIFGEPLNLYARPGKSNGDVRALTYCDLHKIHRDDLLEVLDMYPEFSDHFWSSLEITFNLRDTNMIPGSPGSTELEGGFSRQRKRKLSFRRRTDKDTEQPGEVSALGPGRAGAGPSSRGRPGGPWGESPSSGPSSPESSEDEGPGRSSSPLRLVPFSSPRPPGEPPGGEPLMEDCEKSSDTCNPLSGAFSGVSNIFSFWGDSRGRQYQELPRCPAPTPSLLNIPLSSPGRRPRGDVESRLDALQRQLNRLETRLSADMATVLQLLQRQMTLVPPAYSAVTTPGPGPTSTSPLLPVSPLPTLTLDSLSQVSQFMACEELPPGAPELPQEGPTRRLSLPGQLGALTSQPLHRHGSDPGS

Compound | IC50 [1] [µM] | IC50 [2] [µM] | melting point [°C]
O=C(NC[C@@H]1CCC[C@H](OCCc2ccccc2)C1)c1cn[nH]c1 (single isomer, unassigned) [Example 116] | > 100 | 0.0259 | –
O=C(NC[C@]1(O)CC[C@H](OCc2ccccc2)CC1)c1ccc(O)cc1 [Example 30, N-{[trans-4-(Benzyloxy)-1-hydroxycyclohexyl]methyl}-4-hydroxybenzamide] | > 100 | 0.0236 | –
O=C(NC[C@]1(O)CC[C@H](Oc2ccc(Cl)cc2)CC1)c1ccc(O)c(F)c1 [Example 33, N-{[trans-4-(4-Chlorophenoxy)-1-hydroxycyclohexyl]methyl}-3-fluoro-4-hydroxybenzamide] | 95.6 | 0.0193 | –
O=C(NC[C@H]1CC[C@@H](COc2ccccc2)CO1)c1ccc(O)cc1 [Example 35, (+)-4-Hydroxy-N-{[5S-(phenoxymethyl)tetrahydro-2H-pyran-2S-yl]methyl}benzamide] | 51.6 | 0.0209 | –
O=C(NC[C@@H]1CC[C@H](COc2ccccc2)CO1)c1ccc(O)cc1 [Example 36, (−)-4-Hydroxy-N-{[5R-(phenoxymethyl)tetrahydro-2H-pyran-2R-yl]methyl}benzamide] | 55.2 | 0.0075 | –
O=C(NC[C@H]1CC[C@@H](COCc2ccccc2)CO1)c1ccc(O)cc1 [Example 39, 4-Hydroxy-N-{[5S-(benzyloxymethyl)tetrahydro-2H-pyran-2S-yl]methyl}benzamide] | > 100 | 0.0082 | –
O=C(NC[C@@H]1CC[C@H](COCc2ccccc2)CO1)c1ccc(O)cc1 [Example 40, 4-Hydroxy-N-{[5R-(benzyloxymethyl)tetrahydro-2H-pyran-2R-yl]methyl}benzamide] | > 100 | 0.0104 | –
O=C(NC[C@H]1CC[C@@H](COc2ccccc2)OC1)c1ccc(O)cc1 [Example 43, (−)-4-Hydroxy-N-{[(3R,6S)-6-(phenoxymethyl)tetrahydro-2H-pyran-3-yl]methyl}benzamide] | > 100 | 0.0076 | –
O=C(NC[C@]1(O)CC[C@H](COc2ccccc2F)CC1)c1ccc(O)c(F)c1 [Example 65, 3-Fluoro-N-({trans-4-[(2-fluorophenoxy)methyl]-1-hydroxycyclohexyl}methyl)-4-hydroxybenzamide] | > 100 | 0.01 | –
O=C(NC[C@]1(O)CC[C@H](Cc2ccccc2)CC1)c1ccc(O)cc1 [Example 68, N-[(trans-4-Benzyl-1-hydroxycyclohexyl)methyl]-4-hydroxybenzamide] | > 100 | 0.0073 | –
O=C(NC[C@]1(O)CC[C@H](COCc2ccccc2F)CC1)c1ccc(O)c(F)c1 [Example 69, 3-Fluoro-N-[(trans-4-{[(2-fluorobenzyl)oxy]methyl}-1-hydroxycyclohexyl)methyl]-4-hydroxybenzamide] | > 100 | 0.0132 | –
O=C(NC[C@H]1CC[C@@H](COc2ccc(F)cc2)OC1)c1ccc(O)cc1 [Example 74, N-({(3R,6S)-6-[(4-Fluorophenoxy)methyl]tetrahydro-2H-pyran-3-yl}methyl)-4-hydroxybenzamide] | 54.7 | 0.0072 | –
O=C(NC[C@H]1CC[C@@H](COc2ccc(F)cc2)CO1)c1ccc(O)cc1 [Example 75, N-({(2R,5R)-5-[(4-Fluorophenoxy)methyl]tetrahydro-2H-pyran-2-yl}methyl)-4-hydroxybenzamide] | 26.8 | 0.0062 | –
O=C(NC[C@@H]1CC[C@H](COc2ccc(F)cc2)CO1)c1ccc(O)cc1 [Example 76, N-({(2S,5S)-5-[(4-Fluorophenoxy)methyl]tetrahydro-2H-pyran-2-yl}methyl)-4-hydroxybenzamide] | 27.7 | 0.0293 | –
O=C(NC[C@H]1CC[C@@H](OCCOc2ccccc2)CC1)c1ccc(O)cc1 [Example 78] | 40.8 | 0.0054 | –
O=C(NC[C@]1(O)CC[C@H](Cc2ccc(F)cc2)CC1)c1ccc(O)c(F)c1 [Example 80, 3-Fluoro-N-{[trans-4-(4-fluorobenzyl)-1-hydroxycyclohexyl]methyl}-4-hydroxybenzamide] | > 100 | 0.0089 | –
O=C(NC[C@]1(O)CC[C@H](Cc2ccc(F)cc2)CC1)c1ccc(O)cc1 [Example 81, N-{[trans-4-(4-Fluorobenzyl)-1-hydroxycyclohexyl]methyl}-4-hydroxybenzamide] | 35.7 | 0.0095 | –
O=C(NC[C@H]1CC[C@@H](COc2ccccn2)CC1)c1ccc(O)c(F)c1 [Example 89, 3-Fluoro-4-hydroxy-N-({cis-4-[(pyridin-2-yloxy)methyl]cyclohexyl}methyl)benzamide] | > 100 | 0.009 | –
O=C(NC[C@H]1CC[C@@H](OCCOc2ccc(F)cc2)CC1)c1cn[nH]c1 [Example 90, N-({cis-4-[2-(4-Fluorophenoxy)ethoxy]cyclohexyl}methyl)-1H-pyrazole-4-carboxamide] | > 100 | 0.0052 | –
O=C(NC[C@H]1CC[C@@H](CCOc2ccccc2)CC1)c1cc(F)c(O)c(F)c1 [Example 91, 3,5-Difluoro-4-hydroxy-N-{[cis-4-(2-phenoxyethyl)cyclohexyl]methyl}benzamide] | > 30 | 0.013 | –
O=C(NC[C@H]1CC[C@@H](OCCOc2ccc(F)cc2)CC1)c1ccc(O)nc1 [Example 95] | > 100 | 0.004 | –
O=C(NC[C@H]1CC[C@@H](COc2ccccn2)CC1)c1cn[nH]c1 [Example 105, N-({cis-4-[(Pyridin-2-yloxy)methyl]cyclohexyl}methyl)-1H-pyrazole-4-carboxamide] | > 100 | 0.0272 | –
O=C(NC[C@H]1CC[C@@H](COc2cccc(F)c2)CC1)c1cn[nH]c1 [Example 106, N-({cis-4-[(3-Fluorophenoxy)methyl]cyclohexyl}methyl)-1H-pyrazole-4-carboxamide] | 29.1 | 0.016 | –
O=C(NC[C@H]1CC[C@@H](COc2ccccc2)CC1)c1cc(F)c(O)c(F)c1 [Example 108, 3,5-Difluoro-4-hydroxy-N-{[cis-4-(phenoxymethyl)cyclohexyl]methyl}benzamide] | > 100 | 0.0178 | –
O=C(NC[C@H]1CC[C@@H](CCOc2ccc(F)cc2)CO1)c1cn[nH]c1 [Example 113, N-({(2R,5S)-5-[2-(4-Fluorophenoxy)ethyl]tetrahydro-2H-pyran-2-yl}methyl)-1H-pyrazole-4-carboxamide] | > 100 | 0.0065 | –
O=C(NC[C@@H]1CC[C@H](CCOc2ccc(F)cc2)CO1)c1cn[nH]c1 [Example 114, N-({(2S,5R)-5-[2-(4-fluorophenoxy)ethyl]tetrahydro-2H-pyran-2-yl}methyl)-1H-pyrazole-4-carboxamide] | 99.4 | 0.0078 | –
O=C1CCc2cc(C(=O)NC[C@H]3CC[C@@H](Cc4ccccc4)CC3)ccc2N1 [Example 118, N-[(cis-4-Benzylcyclohexyl)methyl]-2-oxo-1,2,3,4-tetrahydroquinoline-6-carboxamide] | – | – | 188.5
O=C(NC[C@H]1CC[C@@H](COc2ccc(Cl)cc2)CO1)c1cn[nH]c1 [Example 120, N-({(2R,5R)-5-[(4-Chlorophenoxy)methyl]tetrahydro-2H-pyran-2-yl}methyl)-1H-pyrazole-4-carboxamide] | > 30 | 0.0122 | –
O=C(NC[C@H]1CC[C@@H](Cc2ccccc2)CC1)c1ccc2nc(O)ccc2c1 [Example 122, N-[(cis-4-Benzylcyclohexyl)methyl]-2-hydroxyquinoline-6-carboxamide] | – | – | 236.7
Cc1ccc(OC[C@@H]2CC[C@H](CNC(=O)c3cn[nH]c3)OC2)cc1 [Example 123, N-({(2R,5R)-5-[(4-Methylphenoxy)methyl]tetrahydro-2H-pyran-2-yl}methyl)-1H-pyrazole-4-carboxamide] | > 100 | 0.0071 | –
